Measurements: PMC9505538, “P-Glycoprotein (MDR1/ABCB1) Restricts Brain Accumulation of the Novel EGFR Inhibitor EAI045 and Oral Elacridar Coadministration Enhances Its Brain Accumulation and Oral Exposure” (Pharmaceuticals, 2022)

Biological target: T1, endogenous canine ABCB1 (Canis lupus familiaris, UniProt C0KKU9)
T1 construct: the endogenous canine ABCB1, expressed at low levels in the parental cell line; endogenous in cells; host or cells: MDCK-II parental cells (ECACC 00062107)
Assay: Transepithelial transport of EAI045 across MDCK-II parental cell layers
Assay type: in vitro ADME
Details: for efflux ratio r (relative transport ratio): EAI045 5 μM
Protocol: Transport of EAI045 (5 μM) across epithelia was tested using cell layers of Madin–Darby Canine Kidney (MDCK-II) cells and derived clones expressing hABCB1, hABCG2, or mAbcg2 cDNA. […] In cells overexpressing hABCB1, there was clear transport of EAI045 in the apical direction (r = 5.5, Figure 1C). […] To evaluate the interaction between hABCG2 and mAbcg2 and EAI045, zosuquidar (5 μM) was added to inhibit any endogenous canine ABCB1. In cells overexpressing hABCG2, the BA transport of EAI045 was somewhat increased relative to the AB transport, resulting in an efflux ratio of 1.4 (Figure 1E).
Figure 1 In vitro transepithelial transport of EAI045 (5 μM) using MCDK-II parental cells (A,B) or transduced with human ABCB1 (C,D), human ABCG2 (E,F), or murine Abcg2 (G,H) cDNA. At t = 0 EAI045 was added in the donor compartment (either apical or basolateral). At 1, 2, and 4 h EAI045 was quantified in the acceptor compartment and the cumulative total transported amount per well was plotted (n = 3). Zosuquidar (5 μM) was added to inhibit the human and/or the endogenous ABCB1, while Ko143 (5 μM) was added to inhibit the human or murine ABCG2. r, relative transport ratio. […] Points, mean; bars, SD. TEXT PRINTED IN THE PICTURE: (A) no label printed: Parental: r = 1.7 | (B) no label printed: Parental + Zos.: r = 1.1 | (C) no label printed: hABCB1: r = 5.5 | (D) no label printed: hABCB1 + Zos.: r = 1.3 | (E) no label printed: hABCG2 + Zos.: r = 1.4 | (F) no label printed: hABCG2 + Zos. + Ko143: r = 1.1 | (G) no label printed: mAbcg2 + Zos.: r = 1.8 | (H) no label printed: mAbcg2 + Zos. + Ko143: r = 1.4
Madin–Darby Canine Kidney (MDCK-II) cells (ECACC 00062107) stably transduced with human (h) ABCB1, hABCG2, or mouse (m) Abcg2 cDNA were generated in our institute between 1998 and 2005. […] In short, cells were allowed to grow an intact monolayer in 3 days, which was monitored with transepithelial electrical resistance (TEER) measurements, both before and after the transport phase. […] Proper functionality of these cell lines was monitored by continual testing with a variety of drug substrates.

T1 sequence (C0KKU9 1-1281): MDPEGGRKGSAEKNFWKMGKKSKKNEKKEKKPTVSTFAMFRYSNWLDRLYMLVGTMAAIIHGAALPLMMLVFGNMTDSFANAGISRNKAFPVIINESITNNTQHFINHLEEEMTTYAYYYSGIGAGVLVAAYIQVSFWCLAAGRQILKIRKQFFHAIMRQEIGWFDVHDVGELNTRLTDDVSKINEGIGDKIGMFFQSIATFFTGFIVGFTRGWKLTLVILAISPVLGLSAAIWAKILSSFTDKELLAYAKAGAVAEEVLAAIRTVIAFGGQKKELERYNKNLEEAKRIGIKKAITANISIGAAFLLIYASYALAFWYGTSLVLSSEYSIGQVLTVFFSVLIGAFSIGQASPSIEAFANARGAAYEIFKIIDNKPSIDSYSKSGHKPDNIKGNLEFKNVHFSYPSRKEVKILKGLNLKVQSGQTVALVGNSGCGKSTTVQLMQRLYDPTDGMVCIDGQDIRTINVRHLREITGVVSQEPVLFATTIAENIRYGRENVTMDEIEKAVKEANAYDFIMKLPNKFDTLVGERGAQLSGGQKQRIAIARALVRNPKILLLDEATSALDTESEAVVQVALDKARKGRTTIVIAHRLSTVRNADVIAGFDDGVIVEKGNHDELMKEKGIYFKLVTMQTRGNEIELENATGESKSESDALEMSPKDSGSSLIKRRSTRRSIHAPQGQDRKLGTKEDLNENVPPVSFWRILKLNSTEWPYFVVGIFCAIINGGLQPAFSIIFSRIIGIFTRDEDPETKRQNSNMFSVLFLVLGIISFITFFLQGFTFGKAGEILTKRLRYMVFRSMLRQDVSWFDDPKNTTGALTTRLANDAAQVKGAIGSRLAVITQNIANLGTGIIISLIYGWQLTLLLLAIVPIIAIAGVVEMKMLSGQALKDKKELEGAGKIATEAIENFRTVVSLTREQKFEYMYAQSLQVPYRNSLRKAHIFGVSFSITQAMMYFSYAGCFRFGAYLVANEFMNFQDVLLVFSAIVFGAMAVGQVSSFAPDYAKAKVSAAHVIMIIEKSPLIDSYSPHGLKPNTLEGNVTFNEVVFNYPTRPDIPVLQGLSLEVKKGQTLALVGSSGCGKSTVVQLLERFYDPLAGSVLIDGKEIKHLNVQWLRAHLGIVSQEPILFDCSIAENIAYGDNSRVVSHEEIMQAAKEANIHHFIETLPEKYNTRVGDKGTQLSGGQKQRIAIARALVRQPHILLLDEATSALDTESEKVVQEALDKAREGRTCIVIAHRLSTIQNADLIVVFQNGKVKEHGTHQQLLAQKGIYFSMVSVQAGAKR

Compound: O=C(Nc1nccs1)C(c1cc(F)ccc1O)N1Cc2ccccc2C1=O (stereo not drawn) [EAI045]
- efflux ratio r (relative transport ratio) (parental + zosuquidar 5 μM): 1.1
- efflux ratio r (relative transport ratio) (parental, no inhibitor): 1.7
- transport substrate of endogenous canine ABCB1 (in vitro): moderate transport substrate
